Read-outs that look alike come from different tables or passages of the source.
Tests used:
[1] = PK study: plasma pharmacokinetics after oral administration of CA extract in normal and FD rats (UPLC-MS/MS); format: in vivo; conditions: Sprague-Dawley, rat, oral CA extract (0.10 g/mL solution, 10 mL/kg); for AUC(0-inf) / AUC(0-t) / CL/F / Cmax / half-life: n = 6; for Tmax: n = 6, read-out: Tmax; for Vd/F: n = 6, read-out: Vz/F
Procedure: For PK experiments, an appropriate amount of the CA extract was weighed to prepare a 0.10 g/mL solution using physiological saline. Briefly, 12 SD rats were randomly assigned to normal and FD groups and were orally administered the prepared CA sample (10 mL/kg body weight). For assessment, 0.3 mL of blood was collected into heparinized tubes via the caudal vein before dosing and at 2, 5, 10, 15, 20, 30, and 45 min, and 1, 2, 4, 8, 12, 24, and 48 h after administration. Blood samples were then immediately centrifuged at 4,500 rpm for 15 min, and the obtained plasma samples were stored at −20°C until determination.
The PK parameters were analyzed using the non–compartment analysis using the WinNonLin 8.2 software (Phoenix, United States). All the data were expressed as mean ± standard deviation (SD). The normal and FD groups were compared using independent samples t–test in SPSS 22.0. Results with p values < 0.05 were considered statistically significant.

[2] = Stability of the four compounds in plasma samples (QC samples); conditions: n = 5
Procedure: In a 1.5 mL EP tube, 100 μL of plasma sample was mixed with 10 µL 1% formic acid–water, 10 μL IS (0.2011 μg/mL), and 400 μL acetonitrile. The mixture was then vortexed for 5 min, followed by sonication for 10 min at 40 kHz and centrifugation at 14,000 rpm for 10 min. The supernatant obtained was transferred to another tube and evaporated to dryness under a nitrogen vacuum at 37°C. The residue obtained was reconstituted with 150 μL of the initial mobile phase, and the centrifugation process was repeated. The supernatant thus obtained was then used for further analysis.
Similarly, QC samples of three concentrations (low, medium, and high) were prepared.
The specificity of the method was evaluated by comparing the retention times of analytes and IS in the blank matrix, blank matrix spiked with the four analytes and IS, and the samples after oral administration of CA extract. Calibration curves were constructed by comparing the ratio of peak areas of the four analytes to that of IS versus the concentration of the four analytes. Calibration curves were fitted via linear weighted (1/X ^ 2 ) least–squares regression. The intra–and inter–day precision and accuracy were estimated by analyzing QC samples at different concentrations on the same day and three consecutive validation days, respectively. The extraction recovery was evaluated by determining the peak area of analytes in QC samples compared with that in extracted matrix samples. The relative standard deviation of the extraction recovery of analytes at each level was retained at ≤20.0%. The following parameters of stability were assessed: short–term stability (24 h at room temperature), processed sample stability (24 h at 4°C), freeze–thaw stability (3 cycles), and auto–sampler stability (6 h at room temperature). QC samples of different concentrations were used for stability analysis.

[3] = Tissue distribution study after oral administration of CA extract in normal and FD rats
Procedure: UPLC–MS/MS analysis was conducted using the ACQUITY UPLC system (Waters Corp., Milford, MA, United States) equipped with a Xevo–TQ mass spectrometer (Waters Corp., Milford, MA, United States) with an electrospray ionization (ESI) interface and triple quadrupole mass analyzer.
The ACQUITY UPLC® BEH C18 column (2.1 mm × 50 mm, 1.7 μm, Waters, United States) was used for separation and was maintained at 40°C. The mobile phase consisted of 0.1% formic acid in water (A) and 0.1% formic acid–acetonitrile (B) for PK study and 0.2% formic acid in water (A) and 0.2% formic acid–acetonitrile (B) for tissue distribution study. The mobile phase was eluted as a gradient, as follows: 0–0.5 min, 10% B; 0.5–3.0 min, 15% B; 3.0–3.2 min, 25% B; 3.2–4.0 min, 30% B; 4.0–4.5 min, 32% B; 4.5–6.0 min, 90% B; and 6.0 min, 10% B. The flow rate was set at 0.35 mL/min and the injection volume was 2 μL for the PK study and 1 μL for the tissue distribution study.
The four active components of CA were quantified using multiple reaction monitoring under negative ion mode. The following m/z transitions were chosen for quantification: baishouwu benzophenone 301.00→283.00, deacylmetaplexigenin 379.15→361.20, qingyangshengenin 499.20→137.00, syringic acid 197.20→181.95, and puerarin (internal standard, IS) 415.10→267.05. The collision energy was 15, 15, 35, 15, and 35 V, respectively ([Sun et al., 2022]). ESI mode was operated under the following conditions: capillary voltage, 1 kV; desolvation gas (N2), 1000 L/h; collision gas (Ar2), 150 L/h; desolvation temperature, 400°C; and source temperature, 120°C.
Additionally, stomach and small intestinal tissues were diluted three times to obtain a tissue homogenate. Then, 300 μL of this tissue homogenate was mixed with 30 μL 1% formic acid-water, 20 μL IS, and 1.2 mL acetonitrile. The mixture was then vortexed for 5 min, sonicated for 10 min, and then stored at −20°C for 30 min. Subsequently, the mixture was centrifuged at 14,000 rpm for 10 min. The supernatant obtained was then transferred to another tube and evaporated to dryness at 37°C under nitrogen. The dried residue was reconstituted with 200 μL of the 50% methanol–water, and the centrifugation process was repeated. The obtained supernatant was then used for further analysis.
SD rats were randomly divided into normal and FD groups (n = 30 each) and orally administered 10 mL/kg of CA extract solution. The rats were sacrificed at 10, 30 min, 1, 2, and 4 h after administration (6 rats per time point). Subsequently, their heart, liver, spleen, lung, kidney, brain, small intestine, and stomach were removed. The tissue samples were then washed in saline solution and wiped with filter paper. Subsequently, all tissues were stored at −80°C until analysis.

[4] = high QC (nominal 1666.00 / 3172.53 / 569.17 / 206.21 ng·mL^-1)
[5] = low QC (nominal 52.06 / 49.57 / 8.89 / 1.61 ng·mL^-1)
[6] = medium QC (nominal 208.25 / 396.57 / 71.13 / 25.78 ng·mL^-1)

## COc1cc(C(=O)O)cc(OC)c1O [Syringic acid]
[1]; FD group rats
  AUC(0-inf): 1.17 ± 0.357 µg·h/mL
  AUC(0-t): 0.498 ± 0.109 µg·h/mL
  CL/F: 0.11 L/h/kg
  Cmax: 0.0674 ± 0.003 µg/mL
  half-life: 37.7 ± 12.6 h
  Tmax: 0.25 ± 0.04 h
  Vd/F: 5.49 ± 0.69 L/kg
[1]; Normal group rats
  AUC(0-inf): 1.15 ± 0.153 µg·h/mL
  AUC(0-t): 0.523 ± 0.0543 µg·h/mL
  CL/F: 0.1 L/h/kg
  Cmax: 0.0722 ± 0.00674 µg/mL
  half-life: 34.5 ± 6.73 h
  Tmax: 0.24 ± 0.03 h
  Vd/F: 5.07 ± 0.74 L/kg
[2]; [4]
  Measured concentration, 4°C for 24 h: 185.91 ± 1.51 ng/mL
  Measured concentration, Room temperature for 24 h: 196.89 ± 6.85 ng/mL
  Measured concentration, Three freeze-thaw cycles: 198.43 ± 6.85 ng/mL
[2]; [5]
  Measured concentration, 4°C for 24 h: 1.47 ± 0.10 ng/mL
  Measured concentration, Three freeze-thaw cycles: 1.42 ± 0.18 ng/mL
[2]; [6]
  Measured concentration, 4°C for 24 h: 22.75 ± 1.62 ng/mL
  Measured concentration, Room temperature for 24 h: 23.14 ± 1.80 ng/mL
  Measured concentration, Three freeze-thaw cycles: 23.32 ± 1.20 ng/mL
[3]; rat brain
  detection in the brain: not detected
[3]; rat tissues
  time after dosing at which eliminated in all tissues: 1 h
[3]; rats
  tissue with higher distribution: stomach

From paper PMC10616469, “Pharmacokinetics and tissue distribution of four major bioactive components of Cynanchum auriculatum extract: a UPLC–MS/MS study in normal and functional dyspepsia rats” (Frontiers in Pharmacology, 2023)
